{"source": "patent EP3838286B1", "about": "“ANTIMICROBIAL PEPTIDE FROM POLISTES GALLICUS VENOM AND ITS ANALOGS” (Latoxan, priority 2019, dated 2021)", "key": {"[1]": {"test_system": "HeLa TLR4/IL-8 Renilla Luciferase Reporter cell line", "test": "Anti-inflammatory activity (LPS stimulation, luciferase reporter)", "format": "cell-based", "settings": "10 ng/mL LPS from P. aeruginosa; 6 h incubation; read-out: IC50 (inhibition of LPS effect)", "protocol": "Anti-inflammatory activity of the peptides was determined using eLUCidate™ HeLa TLR4/IL-8 Renilla Luciferase Reporter cell line (obtained from ASMBIO). eLUCidate™ HeLa cells were cultivated according to manufacturer instructions. eLUCidate™ HeLa cells were seeded in 96 wells plates at an initial 50,000 cells/well. The next day, media from wells was empty and cells were exposed to LPS from P. aeruginosa (from Sigma Aldrich) diluted in culture media at a final concentration of 10 ng/ml in the presence of increasing concentrations of peptides. Polymyxin B (PMB, from Sigma Aldrich) was used as positive control. After 6 h incubation at 37°C in an incubator containing 5% CO2, wells were empty and cells were lysed in 70 µl of PBS containing 1% Triton X100 for 15 min on ice. 50 µl of cell lysats were then transferred to white 96 wells plates containing 50 µl of Renilla Luciferase substrate (Genofax A from Yelen, Marseille France). Luminescence intensities were measured using microplate reader (Synergy Mx, Biotek). The luminescence values were normalized by the controls (buffer treated cells) and expressed as percent of LPS stimulation. […]"}, "[2]": {"test_system": "Gram-positive and Gram-negative bacteria"}, "[3]": {"test_system": "P. aeruginosa"}, "[4]": {"test_system": "human erythrocytes", "test": "Hemolytic activity assay", "format": "cell-based", "protocol": "The hemolytic activity of each peptide was determined by the leakage of hemoglobin from human erythrocytes (obtained from Divbioscience, NL) as previously described (Oyama et al., 2017 Biofilms Microbiomes, Dec 1;3:33).\nBriefly, human erythrocytes were washed 3 times with phosphate buffer saline (PBS) and concentrated using centrifugation at 800 g for 5 min. Human erythrocytes were then resuspended in PBS at a final concentration of 8 %. 100 µl of human erythrocytes were then added per well of sterile 96 well microplate already containing 15 µl of serially diluted antimicrobials (1:2 in distilled water). After 1 h at 37°C, the microplate was centrifuged at 800 g for 5 min. 100 µl were then carefully collected and transferred to a new 96 well microplate and OD was measured at 405 nm. Hemolysis caused by peptides was expressed as percentage of hemolysis; Triton-X100 at 0.1 % (v:v) was used as positive control and gave 100 % hemolysis. Hemolysis rate was determined as below: Hemolysis rate (%) = (A−A2)/(A1−A2) × 100% [formula] where A is the absorbance of indicator mixtures with different factors, A1 and A2 are the positive control, and the negative control, respectively."}, "[5]": {"test_system": "Candida albicans"}, "[6]": {"test_system": "S. aureus"}, "[7]": {"test_system": "E. coli"}, "[8]": {"test_system": "B. subtilis"}, "[9]": {"test_system": "A.baumani"}, "[10]": {"test_system": "P. aeruginosa", "settings": "Konno et al., Peptides 2006; cited from earlier work"}, "[11]": {"test_system": "E. coli", "settings": "Konno et al., Peptides 2006; cited from earlier work"}}, "note": "pIC50: −log10 of the molar value. Ends that are not written are not given here."}
{"substance": "Polymyxin B [PMB]", "values": [{"measurement": "pIC50", "setting": "[1]", "value": 7.24}]}
{"substance": "ILSAILGLLKNL-NH2 [Gallicus-CP(I1L12)]", "values": [{"measurement": "minimal inhibitory concentration (MIC)", "setting": "[2]", "value": "1.56 to 100", "unit": "µM"}, {"measurement": "MIC (µM) P. aeruginosa", "setting": "[3]", "value": 100, "unit": "µM"}, {"measurement": "50% MHC (concentration inducing 50% hemolysis of human erythrocytes)", "setting": "[4]", "value": 10, "unit": "µM"}]}
{"substance": "ILKAIKKLLKN-NH2 [LTX-gallicune-1 (I1N11)]", "values": [{"measurement": "MIC against Candida albicans", "setting": "[5]", "value": 50, "unit": "µM"}, {"measurement": "MIC against S. aureus", "setting": "[6]", "value": "≥ 100", "unit": "µM"}, {"measurement": "MIC (µM) E. coli", "setting": "[7]", "value": 6.25, "unit": "µM"}, {"measurement": "MIC against E. coli", "setting": "[7]", "value": "> 50", "unit": "µM"}, {"measurement": "MIC against B. subtilis", "setting": "[8]", "value": 6.25, "unit": "µM"}, {"measurement": "hemolytic activity", "setting": "[4]; at 1mM", "value": "not hemolytic"}, {"measurement": "hemotoxicity: no toxicity towards red blood cells up to", "setting": "[4]; highest concentration tested", "value": "> 10", "unit": "mM"}, {"measurement": "times less toxic (hemotoxic) than Gallicus-CP", "setting": "[4]; human erythrocytes, Fig 3", "value": 1000, "unit": "times"}, {"measurement": "MIC (µM) A.baumani", "setting": "[9]", "value": 100, "unit": "µM"}]}
{"substance": "eumenitin", "values": [{"measurement": "effective concentration against P. aeruginosa", "setting": "[10]", "value": 30, "unit": "µM"}, {"measurement": "effective concentration against E. coli", "setting": "[11]", "value": 6, "unit": "µM"}]}
